The values that follow come from ChEMBL document CHEMBL1152880, “Synthesis and SAR studies of trisubstituted purinones as potent and selective adenosine A2A receptor antagonists” (Bioorg Med Chem Lett, 2009).

In one experiment the target is Adenosine receptor A2a (Homo sapiens, UniProt P29274). As to the kind of experiment: Displacement of [3H]SCH-58261 from human recombinant adenosine A2A receptor expressed in HEK293 cells. It counts as cell-based.
A further experiment concerns the target T1, Adenosine receptor A1 (Homo sapiens, UniProt P30542).
T1 sequence (P30542 whole entry): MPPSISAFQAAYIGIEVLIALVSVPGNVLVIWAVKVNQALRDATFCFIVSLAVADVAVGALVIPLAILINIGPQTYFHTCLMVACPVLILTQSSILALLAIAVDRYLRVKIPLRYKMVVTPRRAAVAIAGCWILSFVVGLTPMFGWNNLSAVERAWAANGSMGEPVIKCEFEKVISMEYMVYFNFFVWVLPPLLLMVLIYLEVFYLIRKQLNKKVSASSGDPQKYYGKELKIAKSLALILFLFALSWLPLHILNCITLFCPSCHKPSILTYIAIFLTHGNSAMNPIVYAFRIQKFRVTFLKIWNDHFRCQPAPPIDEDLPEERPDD
As to the kind of experiment: Displacement of [3H]DPCPX from human recombinant adenosine A1 receptor expressed in CHOK1 cells. The experiment is classed as cell-based, CHO-K1. On the technique in general: Displacement assays read how much labelled ligand stays bound in the presence of the test substance.

The species named for a further experiment is Homo sapiens. Nature of the experiment: Selectivity ratio of Ki for human adenosine A1 receptor to Ki for human recombinant adenosine A2A receptor.

SMILES strings stand for the structures.

Adenosine receptor A2a, sequence (P29274 whole entry): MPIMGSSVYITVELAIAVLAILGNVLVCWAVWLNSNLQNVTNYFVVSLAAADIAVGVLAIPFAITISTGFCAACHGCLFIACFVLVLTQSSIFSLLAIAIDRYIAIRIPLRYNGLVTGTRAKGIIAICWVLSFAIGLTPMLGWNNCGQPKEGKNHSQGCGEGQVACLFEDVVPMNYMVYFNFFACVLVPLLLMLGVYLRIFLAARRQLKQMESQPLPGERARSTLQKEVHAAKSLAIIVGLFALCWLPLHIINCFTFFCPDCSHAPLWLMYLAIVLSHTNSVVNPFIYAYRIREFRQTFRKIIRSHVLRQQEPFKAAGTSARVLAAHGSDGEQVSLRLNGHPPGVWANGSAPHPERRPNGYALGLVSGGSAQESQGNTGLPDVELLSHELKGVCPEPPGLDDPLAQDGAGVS

On to `COc1cccc(-n2c(=O)n(Cc3ccccc3OC)c3cnc(NC4CC4)nc32)c1`, for which the figures for the Ki on Adenosine receptor A2a and at Adenosine receptor A1 were 24 nM and 402 nM, respectively. Besides, in the experiment filed under Homo sapiens, the Ratio Ki was 17.
As to `COc1cccc(Cn2c(=O)n(Cc3ccccc3OC)c3cnc(NC4CC4)nc32)c1`, the values for the inhibition constant (Ki) at Adenosine receptor A2a and at Adenosine receptor A1 were 9210 nM and above 10000 nM, respectively.
Consider `COc1ccccc1Cn1c(=O)n(-c2ccccc2OC)c2nc(NC3CC3)ncc21`, for which the Ki on Adenosine receptor A2a is 1560 nM.
Regarding `COc1cccc(-n2c(=O)n(C)c3cnc(NC4CC4)nc32)c1`, the Ki on Adenosine receptor A2a turned out to be 2640 nM.
Take `CCNc1ncc2c(n1)n(-c1cccc(OC)c1)c(=O)n2Cc1c(F)cccc1F`: the Ki on Adenosine receptor A2a stood at 31 nM; on Adenosine receptor A1 it was 1050 nM. For the same molecule, in the experiment listed under Homo sapiens, the Ratio Ki amounted to 34.
The like results for `COc1cccc(-n2c(=O)n(Cc3c(F)cccc3F)c3cnc(NCCc4cccs4)nc32)c1` were, in that order, 9 nM, 1970 nM and 220.
For `COc1ccccc1Cn1c(=O)n(-c2cccc(F)c2)c2nc(NC3CC3)ncc21`, in that order: 89 nM, 599 nM and 7.
The like results for `COc1ccccc1Cn1c(=O)n(-c2cccc(C#N)c2)c2nc(NC3CC3)ncc21` were, in that order, 2590 nM, 3240 nM and 1.3.
On to `COc1cccc(-n2c(=O)n(Cc3c(F)cccc3F)c3cnc(NCc4ccccc4)nc32)c1`, for which the inhibition constant Ki on Adenosine receptor A2a worked out at 72 nM; at Adenosine receptor A1, 2970 nM. The Ratio Ki in the experiment listed under Homo sapiens is 42.
For `COc1cccc(-n2c(=O)n(Cc3ccccc3Cl)c3cnc(NC4CC4)nc32)c1`, in that order: 86 nM, 2850 nM and 33.
For the molecule `COCCNc1ncc2c(n1)n(-c1cccc(OC)c1)c(=O)n2Cc1c(F)cccc1F`, the Ki at Adenosine receptor A2a worked out at 106 nM; at Adenosine receptor A1 it was 1470 nM. Moreover, the Ratio Ki in the experiment listed under Homo sapiens is 14.
`COc1cccc(-n2c(=O)n(Cc3ccccc3)c3cnc(NC4CC4)nc32)c1`: the Ki on Adenosine receptor A2a is 54 nM; on Adenosine receptor A1, 564 nM. The Ratio Ki in the experiment listed under Homo sapiens worked out at 10.
For `CNc1ncc2c(n1)n(-c1cccc(OC)c1)c(=O)n2Cc1c(F)cccc1F`, in that order: 23 nM, 1110 nM and 49.
As for `COc1cccc(-n2c(=O)n(Cc3c(F)cccc3F)c3cnc(NCCN4CCOCC4)nc32)c1`, the Ki on Adenosine receptor A2a was 259 nM; at Adenosine receptor A1, 8600 nM. The Ratio Ki in the experiment listed under Homo sapiens is 33.
For the molecule `COc1cccc(-n2c(=O)n(Cc3c(F)cccc3F)c3cnc(NCC4CC4)nc32)c1`, the Ki on Adenosine receptor A2a came to 499 nM; at Adenosine receptor A1 it was 1070 nM. Moreover, the Ratio Ki in the experiment listed under Homo sapiens worked out at 2.
For the molecule `COc1cccc(-n2c(=O)n(Cc3ccccc3F)c3cnc(NC4CC4)nc32)c1`, the inhibition constant (Ki) on Adenosine receptor A2a stood at 33 nM; at Adenosine receptor A1, 201 nM. Further, the Ratio Ki in the experiment filed under Homo sapiens was 6.
Regarding `COc1cccc(-n2c(=O)n(Cc3c(F)cccc3F)c3cnc(NCCc4ccccn4)nc32)c1`, the Ki at Adenosine receptor A2a is 78 nM; on Adenosine receptor A1 it was 1800 nM. In the experiment filed under Homo sapiens, the Ratio Ki worked out at 23.
For `COc1cccc(-n2c(=O)n(Cc3c(F)cccc3F)c3cnc(NCc4cccnc4)nc32)c1`, in that order: 66 nM, 1300 nM and 20.
As for `COc1cccc(-n2c(=O)n(Cc3c(F)cccc3F)c3cnc(NC4CCCC4)nc32)c1`, the Ki at Adenosine receptor A2a is 213 nM; on Adenosine receptor A1, 1060 nM. Also, the Ratio Ki in the experiment filed under Homo sapiens came to 5.
Turning to `COc1cccc(-n2c(=O)n(Cc3c(F)cccc3F)c3cnc(NCc4ccncc4)nc32)c1`, the inhibition constant Ki at Adenosine receptor A2a stood at 50 nM; on Adenosine receptor A1, 1190 nM. For the same molecule, the Ratio Ki in the experiment filed under Homo sapiens stood at 24.
For `COc1ccccc1Cn1c(=O)n(-c2cccc(C)c2)c2nc(NC3CC3)ncc21`, in that order: 316 nM, 1850 nM and 6.
`COc1cccc(-n2c(=O)n(Cc3c(F)cccc3F)c3cnc(NCc4ccccn4)nc32)c1`: the results for the Ki on Adenosine receptor A2a and on Adenosine receptor A1 were 12 nM and 1210 nM, respectively. In addition, the Ratio Ki in the experiment filed under Homo sapiens was determined as 100.
The like results for `COc1cccc(-n2c(=O)n(Cc3c(F)cccc3OC)c3cnc(NC4CC4)nc32)c1` were, in that order, 6 nM, 330 nM and 55.
For `COc1cccc(-n2c(=O)n(Cc3c(F)cccc3F)c3cnc(NCCN(C)C)nc32)c1`, in that order: 261 nM, 10000 nM and 38.
For `COc1cc(OC)cc(-n2c(=O)n(Cc3ccccc3OC)c3cnc(NC4CC4)nc32)c1`, in that order: 76 nM, 4640 nM and 61.
Regarding `COc1cccc(-n2c(=O)n(Cc3c(F)cccc3F)c3cnc(Nc4cccnc4)nc32)c1`, the values for the inhibitory constant (Ki) on Adenosine receptor A2a and on Adenosine receptor A1 were 111 nM and 1830 nM, respectively. Also, in the experiment listed under Homo sapiens, the Ratio Ki worked out at 17.
For `COc1cccc(-n2c(=O)n(C(C)c3ccccc3)c3cnc(NC4CC4)nc32)c1` (centres undefined), at Adenosine receptor A2a, the Ki amounted to 359 nM.
On to `COc1cccc(-n2c(=O)n(Cc3c(F)cccc3F)c3cnc(NC(C)C)nc32)c1`, for which the Ki at Adenosine receptor A2a came out at 60 nM; on Adenosine receptor A1 it was 616 nM. Besides, the Ratio Ki in the experiment filed under Homo sapiens turned out to be 10.
For `COc1ccccc1Cn1c(=O)n(-c2cccc(OC(F)(F)F)c2)c2nc(NC3CC3)ncc21`, the Ki at Adenosine receptor A2a was determined as 206 nM; on Adenosine receptor A1 it was 5140 nM. For the same molecule, the Ratio Ki in the experiment filed under Homo sapiens turned out to be 25.
`COc1cccc(-n2c(=O)n(Cc3c(F)cccc3F)c3cnc(NC4CC4)nc32)c1`: the inhibition constant Ki on Adenosine receptor A2a was 4 nM; on Adenosine receptor A1, 236 nM. In addition, in the experiment filed under Homo sapiens, the Ratio Ki was found to be 59.
For `COc1ccccc1Cn1c(=O)n(-c2ccccc2)c2nc(NC3CC3)ncc21`, in that order: 409 nM, 447 nM and 1.1.
As for `COc1cccc(-n2c(=O)n(-c3ccccc3OC)c3cnc(NC4CC4)nc32)c1`, the figures for the Ki on Adenosine receptor A2a and at Adenosine receptor A1 were 5120 nM and 1260 nM, respectively. The Ratio Ki in the experiment filed under Homo sapiens is 0.2.

Broadly, the Ki is a measure of affinity in units of concentration, obtained from inhibition or displacement.
